Measurements reported in patent US5646173A, “Tricyclic pyrrole derivatives useful as 5-HT selective agents” (Hoffmann-La Roche Inc., priority 1993, dated 1997).
Counter-ions that a name gives are not always drawn. Like-named read-outs stand apart in the source and are kept apart here.

Experiments:
5HT2C receptor [1] = biological target: T1, 5HT2C receptor (Rattus norvegicus, UniProt P08909); assay: [3H]-5-HT binding assay (Method II b); design: expressed in transfected cells; host or cells: clonal 5-HT1C cell line
T1 sequence (P08909 33-460): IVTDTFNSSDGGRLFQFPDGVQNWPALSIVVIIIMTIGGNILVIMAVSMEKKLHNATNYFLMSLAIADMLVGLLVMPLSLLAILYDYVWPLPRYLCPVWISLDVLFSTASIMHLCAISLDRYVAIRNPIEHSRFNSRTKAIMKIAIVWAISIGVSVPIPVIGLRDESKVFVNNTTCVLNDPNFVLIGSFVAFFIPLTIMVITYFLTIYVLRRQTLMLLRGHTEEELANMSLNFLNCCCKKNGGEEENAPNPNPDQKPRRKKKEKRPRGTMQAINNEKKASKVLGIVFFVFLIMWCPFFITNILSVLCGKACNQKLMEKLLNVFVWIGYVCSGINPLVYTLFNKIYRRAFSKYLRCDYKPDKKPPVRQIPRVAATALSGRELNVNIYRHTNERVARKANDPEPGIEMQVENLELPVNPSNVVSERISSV
Text: b) For the binding to the 5HT2C receptor in accordance with the [3H]-5-HT binding assay according to the method of S. J. Peroutka et al., Brain Research 584, 191-196 (1992).
(§1) The pki values (pki =-log^10 Ki) of the test substances are given. […] [L] is the concentration of ligand and the KD value is the dissociation constant of the ligand.

human-5HT1A receptors = biological target: T2, human-5HT1A receptors (Homo sapiens, UniProt P08908); assay: [3H]-5-HT displacement on recombinant human 5HT1A receptors expressed in 3T3 cells of mice (Method II a); format: binding
T2 construct: expressed in transfected cells; host or cells: mouse 3T3 cells
T2 sequence (P08908 1-422): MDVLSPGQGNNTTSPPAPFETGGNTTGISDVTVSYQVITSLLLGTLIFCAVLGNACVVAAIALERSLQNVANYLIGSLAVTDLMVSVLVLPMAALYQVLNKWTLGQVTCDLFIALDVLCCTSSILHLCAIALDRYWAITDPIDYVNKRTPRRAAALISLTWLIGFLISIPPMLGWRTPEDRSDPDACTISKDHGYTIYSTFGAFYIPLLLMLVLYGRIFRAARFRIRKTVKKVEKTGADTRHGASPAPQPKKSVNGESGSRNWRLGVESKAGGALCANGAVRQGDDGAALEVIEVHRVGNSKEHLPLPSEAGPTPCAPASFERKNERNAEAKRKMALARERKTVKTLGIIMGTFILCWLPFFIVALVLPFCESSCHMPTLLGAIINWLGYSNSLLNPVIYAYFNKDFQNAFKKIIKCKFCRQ
Text: [L] is the concentration of ligand and the KD value is the dissociation constant of the ligand.

5HT2A receptor [2] = biological target: T3, 5HT2A receptor (Homo sapiens, UniProt P28223); assay: [3H]-DOB binding assay (Method II c)
T3 construct: expressed in transfected cells; host or cells: transfected mammalian cells (inferred from the cited method)
Text: c) For the binding to the 5HT2A receptor in accordance with the [3H]-DOB binding assay according to the method of T. Branchek et al., Molecular Pharmacology 38, 604-609 (1990).
as §1

5HT2C receptor [3] = biological target: T1, 5HT2C receptor; assay: Penile erection (rats); format: in vivo; design: from tissue; host or cells: living rat; settings: s.c., number of penile erections within 45 minutes following administration
Method: It has been shown that penile erection is dependent on the stimulation of the 5HT2C receptor (see Berendsen & Broekkamp, Eur. J. Pharmacol, 135, 179-184 (1987)).
The number of penile erections was determined within 45 minutes following administration of the test substance to the animal.

5HT2C receptor [4] = biological target: T4, 5HT2C receptor (Sus scrofa, UniProt K7GSR7); assay: 3H-mesulergine binding assay (Method I b)
T4 construct: from tissue
T4 sequence (K7GSR7 1-457): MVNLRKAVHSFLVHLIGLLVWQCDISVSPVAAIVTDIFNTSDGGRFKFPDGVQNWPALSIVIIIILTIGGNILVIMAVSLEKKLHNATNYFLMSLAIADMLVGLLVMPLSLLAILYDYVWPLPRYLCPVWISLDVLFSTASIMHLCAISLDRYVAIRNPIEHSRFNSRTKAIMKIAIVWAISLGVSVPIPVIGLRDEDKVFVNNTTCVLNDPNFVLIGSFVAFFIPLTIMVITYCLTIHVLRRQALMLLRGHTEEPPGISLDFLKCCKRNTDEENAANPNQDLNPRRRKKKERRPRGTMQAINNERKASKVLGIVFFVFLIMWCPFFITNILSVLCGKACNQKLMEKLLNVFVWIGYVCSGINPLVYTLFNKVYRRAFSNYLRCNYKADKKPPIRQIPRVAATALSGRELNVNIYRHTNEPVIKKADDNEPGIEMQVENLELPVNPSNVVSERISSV
Method: (§2) The binding of the compounds of formula I in accordance with the invention to serotonin receptors was determined in vitro by standard methods. The preparations were investigated in accordance with the assays given hereinafter:
b) For the binding to the 5HT2C receptor in accordance with the ^3 H-mesulergine binding assay according to the method of A. Pazos et al., Europ. J. Pharmacol. 106, 539-546 or. D. Hoyer, Receptor Research 8, 59-81 (1988).

5HT1A receptor = assay: 3H-8-OH-DPAT binding assay (Method I a); settings: read-out: IC50, test method a
Method: The binding of the compounds of formula I in accordance with the invention to serotonin receptors was determined in vitro by standard methods. The preparations were investigated in accordance with the assays given hereinafter: […]

5HT2A receptor [5] = biological target: T5, 5HT2A receptor (Rattus norvegicus, UniProt P14842); assay: biochemical; format: binding
T5 construct: from tissue; host or cells: rat frontal cortex membranes (inferred from the cited method)
Method: as §2
c) For the binding to the 5HT2A receptor in accordance with the ^3 H-ketanserine binding assay according to the method of J. E. Leysen, Molecular Pharmacology 21, 301-304 (1981).

[6] = 5HT2C, [3H]-5-HT, Method II, read-out: pki, test method b (converted)
[7] = human 5HT1A, [3H]-5-HT (1 nM), 3T3 cell membranes, Method II, read-out: pki, test method a (converted)
[8] = rat, sc, 0.75 h, read-out: ED50

T3 sequence (P28223 whole entry): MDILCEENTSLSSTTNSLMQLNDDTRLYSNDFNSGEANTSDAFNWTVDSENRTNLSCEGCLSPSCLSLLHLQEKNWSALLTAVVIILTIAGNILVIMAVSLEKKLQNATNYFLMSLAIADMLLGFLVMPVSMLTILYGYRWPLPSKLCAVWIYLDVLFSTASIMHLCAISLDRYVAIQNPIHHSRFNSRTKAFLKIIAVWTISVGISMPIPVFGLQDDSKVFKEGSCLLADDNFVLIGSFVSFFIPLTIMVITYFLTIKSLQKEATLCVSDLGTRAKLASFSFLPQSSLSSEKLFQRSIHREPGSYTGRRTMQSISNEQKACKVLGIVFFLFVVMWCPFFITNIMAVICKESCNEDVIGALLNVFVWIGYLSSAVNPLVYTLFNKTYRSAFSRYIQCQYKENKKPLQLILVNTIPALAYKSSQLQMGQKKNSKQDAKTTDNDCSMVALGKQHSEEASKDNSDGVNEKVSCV
T5 sequence (P14842 whole entry): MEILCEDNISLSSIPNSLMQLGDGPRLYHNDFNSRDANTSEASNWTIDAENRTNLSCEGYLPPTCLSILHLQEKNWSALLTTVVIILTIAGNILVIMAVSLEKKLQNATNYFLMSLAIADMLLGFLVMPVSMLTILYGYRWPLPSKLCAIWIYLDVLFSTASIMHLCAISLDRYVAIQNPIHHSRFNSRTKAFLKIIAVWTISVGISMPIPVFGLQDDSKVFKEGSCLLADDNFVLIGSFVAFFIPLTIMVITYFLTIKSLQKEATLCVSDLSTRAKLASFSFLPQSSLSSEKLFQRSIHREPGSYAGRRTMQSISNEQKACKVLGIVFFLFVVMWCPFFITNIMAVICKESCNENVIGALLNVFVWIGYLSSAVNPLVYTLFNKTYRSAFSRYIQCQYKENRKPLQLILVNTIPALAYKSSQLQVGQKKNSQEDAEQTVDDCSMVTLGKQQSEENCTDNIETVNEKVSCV

Row | Structure (SMILES) | Ki (5HT2C receptor [1]; [6]) [µM] | Ki (human-5HT1A receptors) [µM] | Ki (5HT2A receptor [2]) [µM] | Ki (5HT2C receptor [1]) [µM] | further results
1 | CC(N)Cn1ccc2c1-c1cccc(Cl)c1C2 (racemic) [Example 37, (RS)-2-(5-chloro-1,4-dihydro-indeno[1,2-b]pyrrol-1-yl)-1-methyl-ethylaminefumarate (1:0.5)] | 0.0355 | 4.79 | 0.309 |  | 
2 | Cc1cccc2c1Cc1ccn(CC(C)N)c1-2 (racemic) [Example 50, (RS)-2-(5-methyl-1,4-dihydro-indeno[1,2-b]pyrrol-1-yl)-1-methyl-ethylaminefumarate (1:0.5)] |  |  | 0.447 | 0.107 | Ki (human-5HT1A receptors; [7]): 2.4 µM
3 | Cc1ccc2c(c1)-c1c(ccn1C[C@H](C)N)C2(C)C.O=C(O)/C=C/C(=O)O [Example 1, (S)-2-(4,4,7-trimethyl-1,4-dihydro-indeno[1,2-b]pyrrol-1-yl)-1-methyl-ethylamine fumarate (1:1)] |  | 2.19 | 0.0537 | 0.00324 | ED50 (5HT2C receptor [3]; [8]): 0.9 mg/kg
4 | COc1ccc2c(c1)-c1c(ccn1C[C@H](C)N)C2(C)C.O=C(O)/C=C/C(=O)O [Example 2, (S)-2-(7-methoxy-4,4-dimethyl-1,4-dihydro-indeno[1,2-b]pyrrol-1-yl)-1-methyl-ethylamine fumarate (1:1)] |  | 4.07 | 0.00933 | 0.000363 | ED50 (5HT2C receptor [3]; [8]): 0.5 mg/kg
5 | COc1ccc2c(c1)-c1c(ccn1C[C@H](C)N)C2 [Example 3, (S)-2-(7-methoxy-1,4-dihydro-indeno[1,2-b]pyrrol-1-yl)-1-methyl-ethylaminefumarate (1:0.5)] |  |  | 0.0759 | 0.00692 | IC50 (5HT2C receptor [4]): 0.0114 µM; ED50 (5HT2C receptor [3]; [8]): 1.2 mg/kg; IC50 (5HT1A receptor): 2.83 µM; IC50 (5HT2A receptor [5]): 2.16 µM
6 | C[C@H](N)Cn1ccc2c1-c1cc(Cl)ccc1C2 [Example 4, (S)-2-(7-chloro-1,4-dihydro-indeno[1,2-b]pyrrol-1-yl)-1-methyl-ethylamine fumarate (1:0.5)] |  |  |  |  | IC50 (5HT2C receptor [4]): 0.0493 µM; ED50 (5HT2C receptor [3]; [8]): 2.7 mg/kg; IC50 (5HT1A receptor): 3.23 µM; IC50 (5HT2A receptor [5]): 2.17 µM
7 | COc1ccc2c(c1)-c1c(ccn1C[C@H](C)N)CC2.O=C(O)/C=C/C(=O)O [Example 5, (S)-2-(4,5-dihydro-8-methoxy-1H-benz[g]indol-1-yl)-1-methyl-ethylamine fumarate (1:1)] |  |  |  |  | IC50 (5HT2C receptor [4]): 0.0202 µM; ED50 (5HT2C receptor [3]): 3.20 mg/kg, s.c.; IC50 (5HT1A receptor): 2.56 µM; IC50 (5HT2A receptor [5]): 0.591 µM
8 | CCc1ccc2c(c1)-c1c(ccn1C[C@H](C)N)C2(C)C [Example 8, (S)-2-(7-ethyl-4,4-dimethyl-1,4-dihydro-indeno[1,2-b]pyrrol-1-yl)-1-methyl-ethylamine fumarate (1:1)] | 0.00234 | 4.57 | 0.0661 |  | 
9 | C[C@H](N)Cn1ccc2c1-c1cc(F)ccc1C2(C)C [Example 9, (S)-2-(7-fluoro-4,4-dimethyl-1,4-dihydro-indeno[1,2-b]pyrrol-1-yl)-1-methyl-ethylamine fumarate (1:1)] |  | 2.75 | 0.0347 | 0.00513 | 
10 | CCC1(CC)c2ccc(OC)cc2-c2c1ccn2C[C@H](C)N [Example 12, (S)-2-(7-methoxy-4,4-diethyl-1,4-dihydro-indeno[1,2-b]pyrrol-1-yl)-1-methyl-ethylamine fumarate (1:0.5)] | 0.01 | 10 | 0.115 |  | 
11 | C[C@H](N)Cn1ccc2c1-c1cc(-c3ccccc3)ccc1C2 [Example 14, (S)-2-(7-phenyl-1,4-dihydro-indeno[1,2-b]pyrrol-1-yl)-1-methyl-ethylamine fumarate (1:0.5)] |  |  | 0.024 | 0.0166 | Ki (human-5HT1A receptors; [7]): 10 µM
12 | CCc1ccc2c(c1)-c1c(ccn1C[C@H](C)N)C2 [Example 17, (S)-2-(7-ethyl-1,4-dihydro-indeno[1,2-b]pyrrol-1-yl)-1-methyl-ethylamine fumarate (1:0.5)] |  |  | 0.562 | 0.0182 | Ki (human-5HT1A receptors; [7]): 10 µM
13 | C[C@H](N)Cn1ccc2c1-c1cc(F)c(F)cc1C2 [Example 25, (S)-2-(6,7-difluoro-1,4-dihydro-indeno[1,2-b]pyrrol-1-yl)-1-methyl-ethylamine fumarate (1:1)] | 0.0417 | 10 | 0.55 |  | 
14 | COc1cc2c(cc1Cl)C(C)(C)c1ccn(C[C@H](C)N)c1-2 [Example 26, (S)-2-(6-chloro-7-methoxy-4,4-dimethyl-1,4-dihydro-indeno[1,2-b]pyrrol-1-yl)-1-methyl-ethylamine fumarate (1:1)] | 0.0263 | 5.62 | 0.0676 |  | 
15 | Cc1ccc2c(c1)-c1c(ccn1C[C@H](C)N)C21CCCC1 [Example 44, (S)-1-methyl-2-(7'-methyl-1',4'-dihydro-spiro[cyclopentane]-1,4'-indeno[1,2-b]pyrrol-1-yl)-ethylamine fumarate (1:1)] |  |  | 0.269 | 0.0794 | Ki (human-5HT1A receptors; [7]): 1.86 µM
